Assay results as given in US7329657B2, “Indazolyl-substituted pyrroline compounds as kinase inhibitors” (Ortho-McNeil Pharmaceutical, Inc., priority 2000, dated 2008).

Experiments:
Assay type in all cases: biochemical
[1] = target: PKC β-II (Homo sapiens, UniProt P05771); experiment: Protein Kinase C Histone-Based Assay, β-II isoform; details: histone III substrate, 30 μM ATP, 10 min at 30° C.; read-out: PKC Activity (IC50 μM, Histone Based Assay) Beta II
Method: (§1) Compounds were evaluated for PKC selectivity using histone III as the substrate. […] The reaction was incubated for 10 min at 30° C. Reactions were terminated by TCA precipitation and spotting on Whatman P81 filters. Filters were washed in 75 mM phosphoric acid and the radioactivity quantified by liquid scintillation counting.

[2] = target: PKC α (Homo sapiens, UniProt P17252); experiment: Protein Kinase C Histone-Based Assay, α isoform; details: histone III substrate, 30 μM ATP, 10 min at 30° C.; read-out: PKC Activity (IC50 μM, Histone Based Assay) Alpha
Method: as §1

[3] = target: PKC γ (Homo sapiens, UniProt P05129); experiment: Protein Kinase C Histone-Based Assay, γ isoform; details: histone III substrate, 30 μM ATP, 10 min at 30° C.; read-out: PKC Activity (IC50 μM, Histone Based Assay) Gamma
Method: as §1

[4] = target: T1, recombinant rabbit GSK-3β protein (Oryctolagus cuniculus, UniProt G1T8E2); experiment: Glycogen Synthase Kinase-3 Assay; details: PPI-2 substrate, 33P-ATP, 90 minutes at 30° C.
T1 construct: purchased New England Biolabs
Method: Compounds were tested for the ability to inhibit recombinant rabbit GSK-3β protein using the following protocol. The test compound was added to a reaction mixture containing Protein phosphatase inhibitor-2 (PPI-2) (Calbiochem) (45 ng), rabbit GSK-3β protein (New England Biolabs) (0.75 units) and ^33P-ATP (1 μCi) in 50 mM Tris-HCl (pH 8.0), 10 mM MgCl2, 0.1% BSA, 1 mM DTT and 100 μM Sodium Vanadate. The mixture was reacted for 90 minutes at 30° C. to allow phosphorylation of the PPI-2 protein and then the protein in the reaction was precipitated using 10% TCA. The precipitated protein was collected on filter plates (MultiScreen-DV/Millipore), which were subsequently washed. Finally, the radioactivity was quantified using a TopCount Scintillation Counter (Packard).

PKC β-II, sequence (P05771 1-673 isoform P05771-2): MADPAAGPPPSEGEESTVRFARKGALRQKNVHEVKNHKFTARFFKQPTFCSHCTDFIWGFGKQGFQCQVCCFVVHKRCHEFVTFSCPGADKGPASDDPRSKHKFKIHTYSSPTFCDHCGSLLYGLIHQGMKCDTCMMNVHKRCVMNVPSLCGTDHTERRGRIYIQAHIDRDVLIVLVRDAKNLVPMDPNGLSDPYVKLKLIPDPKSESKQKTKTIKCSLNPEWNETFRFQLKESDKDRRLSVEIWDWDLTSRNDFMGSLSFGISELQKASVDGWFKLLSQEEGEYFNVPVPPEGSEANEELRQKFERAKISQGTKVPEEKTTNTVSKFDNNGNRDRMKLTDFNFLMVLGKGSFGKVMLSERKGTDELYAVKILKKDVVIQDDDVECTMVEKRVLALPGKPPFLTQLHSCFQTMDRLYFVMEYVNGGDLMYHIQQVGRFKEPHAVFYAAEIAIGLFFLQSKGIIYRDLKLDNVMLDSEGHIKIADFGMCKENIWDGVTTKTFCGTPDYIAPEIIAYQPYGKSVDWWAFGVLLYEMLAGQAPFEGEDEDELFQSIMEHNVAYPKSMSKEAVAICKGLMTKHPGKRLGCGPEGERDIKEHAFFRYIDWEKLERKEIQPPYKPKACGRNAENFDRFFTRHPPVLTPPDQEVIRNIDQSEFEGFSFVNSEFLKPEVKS
T1 sequence (G1T8E2 1-432): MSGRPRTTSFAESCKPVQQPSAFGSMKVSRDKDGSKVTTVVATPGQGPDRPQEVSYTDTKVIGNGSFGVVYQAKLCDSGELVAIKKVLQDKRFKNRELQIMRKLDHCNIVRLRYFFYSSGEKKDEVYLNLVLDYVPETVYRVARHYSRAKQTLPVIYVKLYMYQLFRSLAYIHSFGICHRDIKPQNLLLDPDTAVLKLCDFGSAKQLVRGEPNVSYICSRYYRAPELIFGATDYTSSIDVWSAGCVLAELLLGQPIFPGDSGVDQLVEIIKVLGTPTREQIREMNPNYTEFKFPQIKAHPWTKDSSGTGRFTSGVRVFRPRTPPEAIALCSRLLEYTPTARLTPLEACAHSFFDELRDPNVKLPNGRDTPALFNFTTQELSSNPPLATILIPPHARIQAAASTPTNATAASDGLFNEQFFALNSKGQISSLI

Row | Compound | IC50 [1] [µM] | IC50 [2] [µM] | IC50 [3] [µM] | IC50 [4] [µM]
1 | CN(CCO)CCCn1nc(C2=C(c3cn(C)c4ccc(Cl)cc34)C(=O)NC2=O)c2ccccc21 [Compound 79, 3-(5-chloro-1-methyl-1H-indol-3-yl)-4-[1-[3-[(2-hydroxyethyl)methylamino]propyl]-1H-indazol-3-yl]-1H-pyrrole-2,5-dione] | 0.007 | 0.065 | 0.074 | 0.014
2 | C=Cn1cc(C2=C(c3nn(CC(O)CN(C)C)c4ccccc34)C(=O)NC2=O)c2ccccc21 (centres unmarked) [Compound 1, 3-[1-[3-(dimethylamino)-2-hydroxypropyl]-1H-indazol-3-yl]-4-(1-ethenyl-1H-indol-3-yl)-1H-pyrrole-2,5-dione] | 0.014 | 0.052 | 0.058 | 0.09
3 | CN1CCN(CCCn2nc(C3=C(c4cn(C)c5ccc(Cl)cc45)C(=O)NC3=O)c3ccccc32)CC1 [Compound 77, 3-(5-chloro-1-methyl-1H-indol-3-yl)-4-[1-[3-(4-methyl-1-piperazinyl)propyl]-1H-indazol-3-yl]-1H-pyrrole-2,5-dione] | 0.046 | 0.354 | 0.89 | 0.043
4 | C=Cn1cc(C2=C(c3nn(CCCN(C)C)c4ccccc34)C(=O)NC2=O)c2cc(Cl)ccc21 [Compound 6, 3-(5-chloro-1-ethenyl-1H-indol-3-yl)-4-[1-[3-(dimethylamino)propyl]-1H-indazol-3-yl]-1H-pyrrole-2,5-dione] | 0.013 | 0.105 | 0.129 | 0.048
5 | C=Cn1cc(C2=C(c3nn(CCCN(C)C)c4ccccc34)C(=O)NC2=O)c2ccccc21 [Compound 3, 3-[1-[3-(dimethylamino)propyl]-1H-indazol-3-yl]-4-(1-ethenyl-1H-indol-3-yl)-1H-pyrrole-2,5-dione] | 0.023 | 0.248 | 0.323 | 0.049
6 | CCn1cc(C2=C(c3nn(CCCN(C)C)c4ccccc34)C(=O)NC2=O)c2cc(Cl)ccc21 [Compound 46, 3-(5-chloro-1-ethyl-1H-indol-3-yl)-4-[1-[3-(dimethylamino)propyl]-1H-indazol-3-yl]-1H-pyrrole-2,5-dione] | 0.005 | 0.308 | 0.123 | 0.01
7 | 3-(1-ethyl-1H-indol-3-yl)-4-[1-[3-(4-morpholinyl)propyl]-1H-indazol-3-yl]-1H-pyrrole-2,5-dione [Compound 69] | 0.014 | 0.25 | 0.55 | 0.018

Next, values leading:

Row | IC50 [1] [µM] | IC50 [2] [µM] | IC50 [3] [µM] | IC50 [4] [µM] | Compound
8 | 0.011 | 0.306 | 0.411 | 0.058 | O=C1NC(=O)C(c2nn(CCCO)c3ccccc23)=C1c1cn(-c2cccnc2)c2ccccc12 [Compound 94, 3-[1-(3-hydroxypropyl)-1H-indazol-3-yl]-4-[1-(3-pyridinyl)-1H-indol-3-yl]-1H-pyrrole-2,5-dione]
9 | 0.01 | 0.204 | 0.175 | 0.033 | Cn1cc(C2=C(c3nn(CCCN4CCCC4)c4ccccc34)C(=O)NC2=O)c2cc(Cl)ccc21 [Compound 75, 3-(5-chloro-1-methyl-1H-indol-3-yl)-4-[1-[3-(1-pyrrolidinyl)propyl]-1H-indazol-3-yl]-1H-pyrrole-2,5-dione]
10 | 0.011 | 0.217 | 0.426 | 0.096 | O=C1NC(=O)C(c2nn(CCCN3CCOCC3)c3ccccc23)=C1c1cn(-c2cccnc2)c2ccccc12 [Compound 68, 3-[1-[3-(4-morpholinyl)propyl]-1H-indazol-3-yl]-4-[1-(3-pyridinyl)-1H-indol-3-yl]-1H-pyrrole-2,5-dione]
11 | 0.009 | 0.098 | 0.018 | 0.82 | O=C1NC(=O)C(c2nn(CCCO)c3ccccc23)=C1c1cn(-c2cnc3ccccc3c2)c2ccccc12 [Compound 107, 3-[1-[3-hydroxypropyl]-1H-indazol-3-yl]-4-[1-(3-quinolinyl)-1H-indol-3-yl]-1H-pyrrole-2,5-dione]
